Experimental data taken from patent US9493446B2, “Orexin receptor antagonists which are [ortho bi-(hetero-)aryl]-[2-(meta bi-(hetero-)aryl)-pyrrolidin-1-yl]-methanone derivatives” (Actelion Pharmaceuticals Ltd, priority 2012, dated 2016).
Where two headings read alike, the source gives them in different places.

Key:
orexin-1 = orexin-1 (Homo sapiens (Human), UniProt O43613); experiment: Intracellular calcium measurement (FLIPR), CHO cells expressing human orexin-1 receptor, 3 nM orexin-A; type: cell-based; settings: read-out: IC50 OX1
Procedure, shortened: (§1)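 Antagonist is added 120 min before agonist. Fluo-4 AM-loaded CHO cells carry human orexin-1 or orexin-2 receptor, and calcium is read by FLIPR.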

human orexin-2 receptor = human orexin-2 receptor (Homo sapiens (Human), UniProt O43614); experiment: Intracellular calcium measurement (FLIPR), CHO cells expressing human orexin-2 receptor, 3 nM orexin-A; type: cell-based; settings: read-out: IC50 OX2
Procedure, shortened: as §1

[1] = CHO cells expressing human orexin-1 receptor, FLIPR, 3 nM orexin-A, geometric mean if determined several times
[2] = CHO cells expressing human orexin-2 receptor, FLIPR, 3 nM orexin-A, geometric mean if determined several times

orexin-1, sequence (O43613 whole entry): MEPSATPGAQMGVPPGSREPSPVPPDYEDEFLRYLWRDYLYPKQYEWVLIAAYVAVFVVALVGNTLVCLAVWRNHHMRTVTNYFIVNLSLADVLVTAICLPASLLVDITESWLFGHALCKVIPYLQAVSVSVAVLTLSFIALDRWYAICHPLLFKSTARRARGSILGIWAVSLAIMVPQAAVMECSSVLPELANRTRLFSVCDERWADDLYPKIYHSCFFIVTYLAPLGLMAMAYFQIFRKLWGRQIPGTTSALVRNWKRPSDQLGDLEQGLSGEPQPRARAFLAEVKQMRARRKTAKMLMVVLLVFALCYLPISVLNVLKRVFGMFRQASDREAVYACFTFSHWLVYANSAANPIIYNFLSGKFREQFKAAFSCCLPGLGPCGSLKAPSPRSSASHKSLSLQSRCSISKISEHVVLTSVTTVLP
human orexin-2 receptor, sequence (O43614 whole entry): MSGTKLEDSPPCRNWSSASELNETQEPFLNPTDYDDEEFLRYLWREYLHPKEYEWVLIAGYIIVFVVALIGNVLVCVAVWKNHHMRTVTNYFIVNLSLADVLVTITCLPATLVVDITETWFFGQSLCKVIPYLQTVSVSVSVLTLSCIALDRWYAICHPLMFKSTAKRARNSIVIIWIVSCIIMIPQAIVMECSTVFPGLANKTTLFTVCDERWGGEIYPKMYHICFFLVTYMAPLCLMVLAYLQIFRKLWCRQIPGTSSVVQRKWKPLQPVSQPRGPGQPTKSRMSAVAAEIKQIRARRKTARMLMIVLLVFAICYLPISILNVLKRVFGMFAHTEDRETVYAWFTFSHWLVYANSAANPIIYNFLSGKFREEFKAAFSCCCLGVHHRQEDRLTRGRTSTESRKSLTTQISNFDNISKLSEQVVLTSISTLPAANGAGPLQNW

Row | Compound | IC50 (orexin-1; [1]) [nM] | IC50 (human orexin-2 receptor; [2]) [nM] | IC50 (orexin-1) [nM] | IC50 (human orexin-2 receptor) [nM]
1 | COc1cccc(-c2cnc([C@@H]3CCCN3C(=O)c3cc(C)ccc3-n3nccn3)[nH]2)c1 [compound 524, {(S)-2-[5-(3-Methoxy-phenyl)-1H-imidazol-2-yl]-pyrrolidin-1-yl}-(5-methyl-2-[1,2,3]triazol-2-yl-phenyl)-methanone] | 709 | 45 |  | 
2 | Cc1ccc(-n2nccn2)c(C(=O)N2CCC[C@H]2c2ncc(-c3cccc(Cl)c3C)[nH]2)c1 [compound 525, {(S)-2-[5-(3-Chloro-2-methyl-phenyl)-1H-imidazol-2-yl]-pyrrolidin-1-yl}-(5-methyl-2-[1,2,3]triazol-2-yl-phenyl)-methanone] | 343 | 88 |  | 
3 | CCOc1ccccc1-c1cnc([C@@H]2CCCN2C(=O)c2cc(C)ccc2-n2nccn2)[nH]1 [compound 526, {(S)-2-[5-(2-Ethoxy-phenyl)-1H-imidazol-2-yl]-pyrrolidin-1-yl}-(5-methyl-2-[1,2,3]triazol-2-yl-phenyl)-methanone] | 28 | 5 |  | 
4 | Cc1ccc(-n2nccn2)c(C(=O)N2CCC[C@H]2c2ncc(-c3ccccc3)[nH]2)c1 [compound 527, (5-Methyl-2-[1,2,3]triazol-2-yl-phenyl)-[(S)-2-(5-phenyl-1H-imidazol-2-yl)-pyrrolidin-1-yl]-methanone] | 389 | 109 |  | 
5 | Cc1ccc(-n2nccn2)c(C(=O)N2CCC[C@H]2c2ncc(-c3ccccc3C(F)(F)F)[nH]2)c1 [compound 528, (5-Methyl-2-[1,2,3]triazol-2-yl-phenyl)-{(S)-2-[5-(2-trifluoromethyl-phenyl)-1H-imidazol-2-yl]-pyrrolidin-1-yl}-methanone] | 493 | 117 |  | 
6 | Cc1ccc(-n2nccn2)c(C(=O)N2CCC[C@H]2c2ncc(-c3ccccc3OC(F)(F)F)[nH]2)c1 [compound 529, (5-Methyl-2-[1,2,3]triazol-2-yl-phenyl)-{(S)-2-[5-(2-trifluoromethoxy-phenyl)-1H-imidazol-2-yl]-pyrrolidin-1-yl}-methanone] | 10 | 2 |  | 
7 | Cc1ccc(C(=O)N2CCC[C@H]2c2cc(-c3cccc(Cl)c3C)n[nH]2)c(-n2nccn2)c1 [compound 531] |  | 57 | 255 | 
8 | Cc1ccc(-n2nccn2)c(C(=O)N2CCC[C@H]2c2cc(-c3ccccc3OC(F)(F)F)n[nH]2)c1 [compound 532, (5-Methyl-2-[1,2,3]triazol-2-yl-phenyl)-{(S)-2-[5-(2-trifluoromethoxy-phenyl)-2H-pyrazol-3-yl]-pyrrolidin-1-yl}-methanone] | 286 | 146 |  | 
9 | Cc1ccc(C(=O)N2CCC[C@H]2c2cc(-c3ccccc3OC(F)(F)F)n[nH]2)c(-n2nccn2)c1 [compound 533, (4-Methyl-2-[1,2,3]triazol-2-yl-phenyl)-{(S)-2-[5-(2-trifluoromethoxy-phenyl)-2H-pyrazol-3-yl]-pyrrolidin-1-yl}-methanone] | 258 | 81 |  | 
10 | Cc1ccc(-n2nccn2)c(C(=O)N2CCC[C@H]2c2cc(-c3cccc(Cl)c3C)n[nH]2)c1 [compound 534] | 410 | 53 |  | 
11 | C[C@@]1(c2nc(-c3ccccc3)no2)CCCN1C(=O)c1ncsc1-c1cccc(Cl)c1 [compound 538] | 941 | 2810 |  | 
12 | Cc1cccc(-c2ocnc2C(=O)N2CCC[C@@]2(C)c2nc(-c3ccccc3)no2)c1 [compound 539, [(S)-2-Methyl-2-(3-phenyl-[1,2,4]oxadiazol-5-yl)-pyrrolidin-1-yl]-(5-m-tolyl-oxazol-4-yl)-methanone] | 560 | 1780 |  | 
13 | Cc1ccc(C(=O)N2CCC[C@@]2(C)c2nnc(-c3ccccc3OC(F)(F)F)[nH]2)c(-n2nccn2)c1 [compound 543, (4-Methyl-2-[1,2,3]triazol-2-yl-phenyl)-{(S)-2-methyl-2-[5-(2-trifluoromethoxy-phenyl)-4H-[1,2,4]triazol-3-yl]-pyrrolidin-1-yl}-methanone] | 10 | 20 |  | 
14 | Cc1cc(-n2nccn2)c(C(=O)N2CCC[C@@]2(C)c2nnc(-c3ccccc3OC(F)(F)F)[nH]2)cc1Cl [compound 545] | 4 |  |  | 8
15 | Cc1cc(C(=O)N2CCC[C@@]2(C)c2nnc(-c3ccccc3OC(F)(F)F)[nH]2)c(-n2nccn2)cc1C [compound 546, (4,5-Dimethyl-2-[1,2,3]triazol-2-yl-phenyl)-{(S)-2-methyl-2-[5-(2-trifluoromethoxy-phenyl)-4H-[1,2,4]triazol-3-yl]-pyrrolidin-1-yl}-methanone] | 4 | 8 |  | 
16 | C[C@@]1(c2nnc(-c3ccccc3OC(F)(F)F)[nH]2)CCCN1C(=O)c1cc(Cl)ccc1-n1nccn1 [compound 547] | 25 | 34 |  | 
17 | Cc1ccc(C(=O)N2CCC[C@@]2(C)c2nnc(-c3ccccc3OC(F)(F)F)[nH]2)c(-c2ccccc2)c1 [compound 548, (5-Methyl-biphenyl-2-yl)-{(S)-2-methyl-2-[5-(2-trifluoromethoxy-phenyl)-4H-[1,2,4]triazol-3-yl]-pyrrolidin-1-yl}-methanone] | 35 | 65 |  | 
18 | Cc1ccc(-c2ccccc2)c(C(=O)N2CCC[C@@]2(C)c2nnc(-c3ccccc3OC(F)(F)F)[nH]2)c1 [compound 549, (4-Methyl-biphenyl-2-yl)-{(S)-2-methyl-2-[5-(2-trifluoromethoxy-phenyl)-4H-[1,2,4]triazol-3-yl]-pyrrolidin-1-yl}-methanone] | 31 | 64 |  | 

Row | Compound | IC50 (orexin-1; [1]) [nM] | IC50 (human orexin-2 receptor; [2]) [nM] | IC50 (orexin-1) [nM] | IC50 (human orexin-2 receptor) [nM]
19 | Cc1ccc(-n2nccn2)c(C(=O)N2CCC[C@@]2(C)c2nnc(-c3cccc(Cl)c3C)[nH]2)c1 [compound 550] | 272 | 178 |  | 
20 | Cc1ccc(C(=O)N2CCC[C@@]2(C)c2nnc(-c3cccc(Cl)c3C)[nH]2)c(-n2nccn2)c1 [compound 551] | 43 | 24 |  | 
21 | Cc1cc(-n2nccn2)c(C(=O)N2CCC[C@@]2(C)c2nnc(-c3cccc(Cl)c3C)[nH]2)cc1Cl [compound 552] | 9 | 7 |  | 
22 | Cc1cc(C(=O)N2CCC[C@@]2(C)c2nnc(-c3cccc(Cl)c3C)[nH]2)c(-n2nccn2)cc1C [compound 553] | 14 | 6 |  | 
23 | Cc1c(Cl)cccc1-c1nnc([C@]2(C)CCCN2C(=O)c2cc(Cl)ccc2-n2nccn2)[nH]1 [compound 554] | 120 |  |  | 34
24 | Cc1c(Cl)cccc1-c1nnc([C@]2(C)CCCN2C(=O)c2ccc(Cl)cc2-n2nccn2)[nH]1 [compound 555] | 27 | 11 |  | 
25 | Cc1ccc(-c2ccccc2)c(C(=O)N2CCC[C@@]2(C)c2nnc(-c3cccc(Cl)c3C)[nH]2)c1 [compound 556] | 870 | 857 |  | 
26 | Cc1ccc(C(=O)N2CCC[C@@]2(C)c2nnc(-c3cccc(Cl)c3C)[nH]2)c(-c2ccccc2)c1 [compound 557] | 292 | 224 |  | 
27 | (4,5-Dimethyl-2-[1,2,3]triazol-2-yl-phenyl)-{(S)-2-[5-(2-trifluoromethoxy-phenyl)-[1,2,4]oxadiazol-3-yl]-pyrrolidin-1-yl}-methanone [Example 304] | 4 | 3 |  | 
28 | Furan-3-yl-[(S)-2-(3-o-tolyl-[1,2,4]oxadiazol-5-yl)-pyrrolidin-1-yl]-methanone [Reference compound 6, reference compound] |  | 27 | 21 | 
29 | Furan-3-yl-[(S)-2-(3-phenyl-[1,2,4]oxadiazol-5-yl)-pyrrolidin-1-yl]-methanone [Reference compound 4, reference compound] |  | 897 | > 5040 | 
30 | Thiophen-2-yl-[(S)-2-(3-o-tolyl-[1,2,4]oxadiazol-5-yl)-pyrrolidin-1-yl]-methanone [Reference compound 3, reference compound] | 182 |  |  | 34
31 | [3-(2-Chloro-phenyl)-5-methyl-isoxazol-4-yl]-{(S)-2-[3-(2-trifluoromethoxy-phenyl)-[1,2,4]oxadiazol-5-yl]-pyrrolidin-1-yl}-methanone [Reference compound 10, reference compound] | 1040 | 150 |  | 
32 | {(S)-2-[3-(3-Chloro-phenyl)-[1,2,4]oxadiazol-5-yl]-pyrrolidin-1-yl}-furan-3-yl-methanone [Reference compound 5, reference compound] | 403 | 554 |  | 
33 | {(S)-2-[3-(3-Chloro-phenyl)-[1,2,4]oxadiazol-5-yl]-pyrrolidin-1-yl}-thiophen-2-yl-methanone [Reference compound 2, reference compound] | 253 | 41 |  | 
34 | {(S)-2-[5-(3-Chloro-2-methyl-phenyl)-[1,2,4]oxadiazol-3-yl]-pyrrolidin-1-yl}-[3-(2-chloro-phenyl)-5-methyl-isoxazol-4-yl]-methanone [Reference compound 8, reference compound] | 156 | 74 |  | 
35 | {(S)-2-[5-(3-Chloro-2-methyl-phenyl)-[1,3,4]oxadiazol-2-yl]-pyrrolidin-1-yl}-[3-(2-chloro-phenyl)-5-methyl-isoxazol-4-yl]-methanone [Reference compound 9, reference compound] |  | 242 | 853 | 
